From patent US10294234B2, “HIV inhibitor compounds” (priority 2017, dated 2019)
Like-named read-outs stand apart in the source and are kept apart here.

Legend:
[1] = 3H Human Predicted Clearance Assay (tritiated analogs); assay type: in vitro ADME; settings: human, 1 uM
Experimental: 3H Human Predicted Clearance Assay:
For certain compounds, tritiated analogs (H^3) were prepared to further determined their human predicted clearance with increased resolution. Those studies were performed as described above using the tritiated analogs. Data from those compounds is found in Table 2 below and reported in FIG. 1 (note ATV and DRV were not tritiated).

in vivo [2] = settings: for Vd / RAT IV CL / RAT IV T1/2: iv
How it was run: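 Male SD rats (n=3/group, 0.27–0.32 kg), fasted overnight, given 0.5 or 1.0 mg/kg by 30-min IV infusion, or by oral gavage. Serial plasma samples (EDTA-K2) over 24 h measured by LC/MS/MS; non-compartmental PK analysis.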

in vivo [3] = assay: in vivo
Experimental: Pharmacokinetic Profiling Dog PK
Each dosing group consisted of three non-naïve male beagle dogs. At dosing, the animals weighed between 9 to 12 kg. The animals were fasted overnight prior to dose administration and up to four hours after dosing. The test article was administered by intravenous infusion over 30-minutes. The rate of infusion was adjusted according to the body weight of each animal to deliver a dose of 0.5 or 1.0 mg/kg. For the oral dosing group, the test article was administered by oral gavage at a dose volume of 2 mL/kg.
Serial venous blood samples (approximately 1.0 mL each) were collected at predose and 0.25, 0.48, 0.58, 0.75, 1.0, 1.5, 2, 4, 8, 12 and 24 hours post dose from each animal for the IV dosing group; blood samples were collected at predose, 0.25, 0.50, 1, 2 4, 6, 8,12 and 24 hours post dose for the oral dosing group. The blood samples were collected into Vacutainer™ tubes containing EDTA-K2 as the anti-coagulant and were immediately placed on wet ice pending centrifugation for plasma. An LC/MS/MS method was used to measure the concentration of test compound in plasma. Non-compartmental pharmacokinetic analysis was performed on the plasma concentration-time data. VSS=apparent volume of distribution, t1/2=half life, F=oral bioavailability.

[4] = How it was run: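 LC/MS/MS read-out of parent compound remaining; in vitro t1/2 converted to Clint. Incubation: 1 uM compound, 0.5 mg/mL dog/rat/human liver microsomes, NADPH-regenerating system, duplicate sets, time-points 2–65 minutes.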
[5] = test system: HIV-1 (IIIB) in MT-4 cells; assay: MT-4 HIV assay; assay type: cell-based; settings: Human immunodeficiency virus 1, MT4, 120 h; HIV-1 (IIIB), MT-4 cells, 5 days, Cell Titer Glo; read-out: EC50
How it was run: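 Antiviral activity was read by Cell Titer Glo after a 5-day, 37 °C culture of MT-4 cells pre-infected with a 1:250 dilution of HIV-1 (IIIB). Compounds were tested as threefold dilution series in complete RPMI. Controls were no drug, mock infection and 5 uM AZT.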

[6] = test system: HIV-1 (IIIB) in MT-4 cells; assay: MT-4 HIV High Resolution Antiviral Assay; assay type: cell-based; settings: for EC50: Human immunodeficiency virus 1, IIIB, MT4; for EC95: calculated from Hill coefficient and EC50; for Hill-coefficient: Graph Pad Prism
Experimental: Compounds were tested in a high-throughput 384-well assay format for their ability to inhibit the replication of HIV-1 (IIIB) in MT-4 cells. Compounds were serially diluted (1:3) in DMSO on 384-well polypropylene plates and further diluted 200-fold into complete RPMI media (10% FBS, 1% P/S) using the Biotek Micro Flow and Agilent ECHO acoustic dispenser. Each plate contained up to 8 test compounds, with negative (No Drug Control) and 5 uM AZT positive controls. MT-4 cells were pre-infected with 10 uL of either RPMI (mock-infected) or a fresh 1:250 dilution of an HIV-1 (IIIB) concentrated virus stock. Infected and uninfected MT-4 cells were further diluted in complete RPMI media and added to each plate using a Micro Flow dispenser. After 5 days incubation in a humidified and temperature controlled incubator (37° C.), Cell Titer Glo (Promega) was added to the assay plates to quantify the amount of luciferase. EC50 and CC50 values were defined as the compound concentration that causes a 50% decrease in luminescence signal, and were calculated using a sigmoidal dose-response model to generate curve fits.
(§1) MT-4 HIV High Resolution Antiviral Assay
(§2) Assay protocol is identical to that described for the MT-4 antiviral assay with the following changes: Each drug is run in 2 series of quadruplicates with different starting concentrations for each series and 19 1.5 fold dilutions performed across the plate. […] Data is analyzed and Hill coefficients determined in Graph Pad Prism (San Diego, Calif.). EC95s were determined by the formula EC95=(19)^I/hill coefficient×EC50. HD values were determined for certain compounds and reported in Table 5 below as an illustrative example.

[7] = test system: HIV-1 (IIIB) in MT-4 cells; assay: Protein adjusted EC95 (high resolution antiviral assay with equilibrium dialysis plasma protein binding); assay type: cell-based; settings: EC95 adjusted for plasma protein binding (10% plasma vs cell culture media)
Experimental: as §1, §2
Equilibrium Dialysis Assay
Pooled plasma (from at least 3 males and 3 females) was from Bioreclamation IVT. Sodium EDTA was used as the anticoagulant. 10% plasma was diluted in 0.133M phosphate buffer consisted of 1.5% (w/v) Sodium EDTA.
RPMI cell culture media consisted 10% FBS was provided by biology department, Gilead Sciences, Inc.
Plasma Protein Binding Assay:
Studies were conducted in duplicate or triplicate using a Dianorm Equilibrium Dialyser (Harvard Apparatus, Holliston Mass.) with each cell consisting of a semipermeable membrane (2.4 cm working diameter) separating two 1 mL PTFE half-cells (Weder HG, Schildknecht J, Kesselring P. A new equilibrium dialyzing system. American Laboratory. 1971; 10: 15-21). Prior to the study, the dialysis membrane was soaked for approximately one hour in 0.133 M phosphate buffer, pH 7.4. 10% plasma and cell culture media spiked with 1 μM compound (1 mL) were placed into opposite sides of the assembled dialysis cells and the dialysis cells were then rotated slowly in a 37° C. water bath. After the equilibration period, matrix-containing samples from both sides were drained into pre-weighed polypropylene tubes. Post-dialysis 10% plasma samples were transferred into centrifuge tubes containing 1 mL of blank cell culture media. Post-dialysis cell culture media samples were transferred into centrifuge tubes containing 1 mL of blank 10% plasma. All samples weights were measured and recorded for calculations of volume shift and recovery. […]

recombinant HIV protease = recombinant HIV protease (Human immunodeficiency virus type 1 group M subtype B, UniProt P04585); assay: biochemical
Experimental: Inhibitor potency was measured using an enzymatic assay with a fluorogenic readout. […] After a 20-minute pre-incubation, the enzymatic reaction was initiated by the addition of the fluorogenic substrate (2-aminobenzoyl)Thr-Ile-Nle-(p-nitro)Phe-Gln-Arg (Bachem) to a final concentration of 40 μM. The total volume of the assay solution was 100 µL. The reaction was measured over 20 minutes on a Tecan Infinite M1000 plate reader using an excitation wavelength of 320 nm and a detection wavelength of 420 nm. The slopes of the progress curves were the measure of reaction rates.

[8] = male, SD, rat, in vivo, po, 2.5 mg/kg
[9] = male beagle dogs, IV infusion over 30 minutes, 0.5 or 1.0 mg/kg
[10] = male, beagle, dog, in vivo, po, 2 mg/kg

COC(=O)N[C@H](C(=O)N[C@@H](Cc1ccc(C#Cc2ccc(N3CC4CCC(C3)N4C3COC3)nc2)cc1)[C@@H](O)CN(Cc1c(F)cc(-c2ccn(C3CC3)n2)cc1F)NC(=O)[C@@H](NC(=O)OC)C(C)(C)C(F)(F)F)C(C)(C)C(F)(F)F [Example 170, Methyl ((5S,8S,9S,14S)-11-(4-(1-cyclopropyl-1H-pyrazol-3-yl)-2,6-difluorobenzyl)-16,16,16-trifluoro-9-hydroxy-15,15-dimethyl-8-(4-((6-(8-(oxetan-3-yl)-3,8-diazabicyclo [3.2.1]octan-3-yl)pyridin-3-yl)ethynyl)benzyl)-3,6,13-trioxo-5-(1,1,1-trifluoro-2-methylpropan-2-yl)-2-oxa-4,7,11,12-tetraazahexadecan-14-yl)carbamate]
3H Human Predicted Cl. [1]: 0.05
Vd (in vivo [2]; male, SD, rat, in vivo): 3.32 L/kg
RAT PO F (in vivo [2]; [8]): 36.6%
RAT IV CL (in vivo [2]; rat, in vivo): 5.83 mL/min/kg
RAT IV T1/2 (in vivo [2]; rat, in vivo): 9.38 h
DOG IV CL (in vivo [3]; dog, in vivo, iv): 23.2 mL/min/kg
DOG IV T1/2 (in vivo [3]; [9]): 7.62 h
Vd (in vivo [3]; male, beagle, dog, in vivo, iv): 4.35 L/kg
DOG PO F (in vivo [3]; [10]): 2.45%
Human Pred Cl. ([4]; human, microsomes): <0.11 L/H/kg
Rat. Pred. Cl. ([4]; rat, microsomes): <0.18 L/H/kg
EC50 [5]: 4.13 nM

COC(=O)N[C@H](C(=O)N[C@@H](Cc1ccc(C#Cc2cnc(N3CC4CCC(C3)N4C3COC3)nc2)cc1)[C@@H](O)CN(Cc1c(F)cc(-c2ccn(C(F)F)n2)cc1F)NC(=O)[C@@H](NC(=O)OC)C(C)(C)C(F)(F)F)C(C)(C)C(F)(F)F [Example 171, Methyl ((5S,8S,9S,14S)-11-(4-(1-(difluoromethyl)-1H-pyrazol-3-yl)-2,6-difluorobenzyl)-16,16,16-trifluoro-9-hydroxy-15,15-dimethyl-8-(4-((2-(8-(oxetan-3-yl)-3,8-diazabicyclo[3.2.1]octan-3-yl)pyrimidin-5-yl)ethynyl)benzyl)-3,6,13-trioxo-5-(1,1,1-trifluoro-2-methylpropan-2-yl)-2-oxa-4,7,11,12-tetraazahexadecan-14-yl)carbamate]
3H Human Predicted Cl. [1]: 0.02
Vd (in vivo [2]; male, SD, rat, in vivo): 8.11 L/kg
RAT PO F (in vivo [2]; [8]): 39%
RAT IV CL (in vivo [2]; rat, in vivo): 5.33 mL/min/kg
RAT IV T1/2 (in vivo [2]; rat, in vivo): 22.5 h
DOG IV CL (in vivo [3]; dog, in vivo, iv): 4.33 mL/min/kg
DOG IV T1/2 (in vivo [3]; [9]): 13.4 h
Vd (in vivo [3]; male, beagle, dog, in vivo, iv): 3.12 L/kg
DOG PO F (in vivo [3]; [10]): 23%
Dog. Pred. Cl. ([4]; dog, microsomes): 0.27 L/H/kg
Human Pred Cl. ([4]; human, microsomes): <0.11 L/H/kg
Rat. Pred. Cl. ([4]; rat, microsomes): 0.215 L/H/kg
EC50 [5]: 4.59 nM

COC(=O)N[C@H](C(=O)N[C@@H](Cc1ccccc1)[C@@H](O)CN(Cc1ccc(-c2ccccn2)cc1)NC(=O)[C@@H](NC(=O)OC)C(C)(C)C)C(C)(C)C [atazanavir, methyl N-[(2S)-1-[2-[(2S,3S)-2-hydroxy-3-[[(2S)-2-(methoxycarbonylamino)-3,3-dimethylbutanoyl]amino]-4-phenylbutyl]-2-[(4-pyridin-2-ylphenyl)methyl]hydrazinyl]-3,3-dimethyl-1-oxobutan-2-yl]carbamate, reference compound]
Vd (in vivo [2]; male, SD, rat, in vivo): 0.87 L/kg
RAT PO F (in vivo [2]; male, SD, rat, in vivo, po, 5 mg/kg): 38%
RAT IV CL (in vivo [2]; rat, in vivo): 45 mL/min/kg
RAT IV T1/2 (in vivo [2]; rat, in vivo): 0.37 h
EC50 ([6]; high resolution assay, 40 data points, MT-4 cells, read-out: EC50): 9.7 nM
EC95 [6]: 25 nM
Hill-coefficient ([6]; high resolution assay): 3.1
Protein Adjusted EC95 [7]: 75 nM
DOG IV CL (in vivo [3]; [9]): 16.7 mL/min/kg
DOG IV T1/2 (in vivo [3]; [9]): 1.3 h
DOG PO F (in vivo [3]; male beagle dogs, oral gavage, PO dose 10 mg/kg): 48%
Vd (in vivo [3]; male, beagle, dog, plasma, iv): 0.9 L/kg
Ki (recombinant HIV protease): 0.035 nM
Dog. Pred. Cl. ([4]; dog liver microsomes 0.5 mg/mL, 1 uM compound, NADPH): 1.4 L/H/kg
Human Pred Cl. ([4]; human liver microsomes 0.5 mg/mL, 1 uM compound, NADPH): 1.07 L/H/kg
Rat. Pred. Cl. ([4]; rat liver microsomes 0.5 mg/mL, 1 uM compound, NADPH): 3.7 L/H/kg

CC(C)CN(C[C@@H](O)[C@H](Cc1ccccc1)NC(=O)O[C@H]1CO[C@H]2OCC[C@H]21)S(=O)(=O)c1ccc(N)cc1 [darunavir, [(3aS,4R,6aR)-2,3,3a,4,5,6a-hexahydrofuro[2,3-b]furan-4-yl] N-[(2S,3R)-4-[(4-aminophenyl)sulfonyl-(2-methylpropyl)amino]-3-hydroxy-1-phenylbutan-2-yl]carbamate, reference compound]
RAT PO F (in vivo [2]; male SD rats, oral gavage, PO dose 2.0 mg/kg): 24%
Vd (in vivo [2]; male, SD, rat, in vivo): 0.73 L/kg
EC50 [6]: 7.2 nM
EC95 [6]: 19.9 nM
Hill-coefficient ([6]; high resolution assay): 2.9
Protein Adjusted EC95 [7]: 42 nM
DOG PO F (in vivo [3]; male beagle dogs, oral gavage, PO dose 2 mg/kg): 38%
Vd (in vivo [3]; male, beagle, dog, in vivo, iv): 0.87 L/kg
